Drawing on PubChem BioAssay (NCI), this text covers GI50 and TGI for ten compounds.

Some test systems named below: HCT-15 colon; KM12 colon; SN12C renal; NCI-H460 lung; COLO 205 colon; NCI/ADR-RES ovarian; SK-OV-3 ovarian; SNB-19 CNS; HOP-92 NSCLC; HL-60(TB) leukemia.
Common to all, as to assay: NCI anticancer screen, dose series, 48 h

The structures appear in SMILES notation.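 Values below derive from 48-hour exposures of cells grown in 96-well plates, with endpoints linearly interpolated between the two concentrations bracketing the appropriate inhibition level. GI50 = concentration required for 50% inhibition of growth. TGI denotes the concentration required for complete inhibition of growth.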

On to `Cc1nc2sccn2c1-c1nc2sccn2c1/C=C1/C(=O)Nc2ccccc21`, for which the GI50 is 3.09 µM with HCT-15 colon; 1.76 µM in the assay on KM12 colon; 16.8 µM in the assay on SN12C renal; 3.09 µM in the assay with NCI-H460 lung; 2.63 µM in the assay on COLO 205 colon; 9.08 µM in the assay with NCI/ADR-RES ovarian. Moreover, the GI50 in the assay on SK-OV-3 ovarian was 2.4 µM; in the assay with SNB-19 CNS, 3.52 µM; in the assay on HOP-92 NSCLC, 1.4 µM. Besides, the TGI in the assay with HCT-15 colon is 20.7 µM; with KM12 colon it was 14.6 µM; with SN12C renal, greater than 100 µM; in the assay with NCI-H460 lung, 13.5 µM; with COLO 205 colon, 10.5 µM; with NCI/ADR-RES ovarian it was greater than 100 µM. The values for the TGI in the assay with SK-OV-3 ovarian, with SNB-19 CNS and with HOP-92 NSCLC were 15.4 µM, 23.9 µM and 10.2 µM, respectively.

On to `COc1nc(=O)n(C2C=CC(=O)O2)cc1F` (centres undefined), for which the GI50 in the assay with HCT-15 colon was 2.59 µM; in the assay on KM12 colon, 11.7 µM; with SN12C renal, 11.6 µM; with NCI-H460 lung it was 12.5 µM; with COLO 205 colon it was 1.71 µM; in the assay with NCI/ADR-RES ovarian, 10.1 µM. Moreover, the GI50 is 25.8 µM with SK-OV-3 ovarian, 22.3 µM in the assay with SNB-19 CNS and 1.85 µM in the assay on HOP-92 NSCLC. The TGI is 12 µM with HCT-15 colon; 23.9 µM in the assay with KM12 colon; 25.7 µM in the assay with SN12C renal; 28.7 µM in the assay on NCI-H460 lung; 3.62 µM with COLO 205 colon; 37.4 µM in the assay with NCI/ADR-RES ovarian. Moreover, the figures for the TGI in the assay on SK-OV-3 ovarian, in the assay with SNB-19 CNS and in the assay with HOP-92 NSCLC were 62.3 µM, 57 µM and 11.7 µM, respectively.

`C=C(CN(C)Cc1ccccc1)c1ccc(NC(=O)c2ccc(C(=C)CN(C)Cc3ccccc3)cc2)cc1`: the GI50 in the assay on HCT-15 colon is 76.5 µM; with KM12 colon it was greater than 100 µM; with SN12C renal it was greater than 100 µM; in the assay on NCI-H460 lung it was 97.3 µM; with COLO 205 colon, greater than 100 µM; in the assay with NCI/ADR-RES ovarian, 34.8 µM. Moreover, the GI50 with SK-OV-3 ovarian was 33.7 µM; in the assay with SNB-19 CNS it was 25.5 µM. The TGI in the assay with HCT-15 colon, in the assay on KM12 colon, in the assay with SN12C renal, in the assay with NCI-H460 lung, in the assay with COLO 205 colon and with NCI/ADR-RES ovarian was greater than 100 µM throughout. In addition, the TGI in the assay on SK-OV-3 ovarian is greater than 100 µM; in the assay with SNB-19 CNS it was 80.1 µM.

As to `CCSc1nc(N=Cc2ccccc2O)c2cn[nH]c2n1`, the GI50 was 39.8 µM with HCT-15 colon; 13.2 µM in the assay with KM12 colon; 26.3 µM in the assay with SN12C renal; 30.7 µM in the assay with NCI-H460 lung; 30.7 µM with COLO 205 colon; 20.3 µM with NCI/ADR-RES ovarian. Further, the GI50 with SK-OV-3 ovarian was greater than 100 µM; with SNB-19 CNS, 56.1 µM. Moreover, the TGI is greater than 100 µM in the assay with HCT-15 colon; 37 µM in the assay on KM12 colon; 95.1 µM with SN12C renal; greater than 100 µM in the assay on NCI-H460 lung; greater than 100 µM with COLO 205 colon; 63.6 µM in the assay with NCI/ADR-RES ovarian. Moreover, the TGI in the assay with SK-OV-3 ovarian and with SNB-19 CNS was greater than 100 µM in each case.

For the compound `COc1cc(/C=C2\CCCCC3=C2N=C2SC(C)=CN2C3c2cc(OC)c(OC)c(OC)c2)cc(OC)c1OC` (centres undefined), the GI50 in the assay on KM12 colon is 36.8 µM; in the assay on SN12C renal it was 61.8 µM; in the assay on NCI-H460 lung, 96.1 µM; in the assay on COLO 205 colon, 41.6 µM; in the assay with NCI/ADR-RES ovarian it was 12 µM; in the assay with SK-OV-3 ovarian, 6.23 µM. For the same compound, the GI50 with SNB-19 CNS is greater than 100 µM; with HOP-92 NSCLC it was 0.609 µM; in the assay on HL-60(TB) leukemia it was 19.5 µM. The TGI with KM12 colon, in the assay with SN12C renal, with NCI-H460 lung, in the assay on COLO 205 colon, in the assay with NCI/ADR-RES ovarian and with SK-OV-3 ovarian was greater than 100 µM in each case. The TGI with SNB-19 CNS, in the assay with HOP-92 NSCLC and with HL-60(TB) leukemia was greater than 100 µM in each case.

With `O=C1c2cccc3cccc(c23)C(=O)N1CCN(CCO)CCO`, the TGI was 56.2 µM with HCT-15 colon; greater than 100 µM with KM12 colon; 74.3 µM in the assay with SN12C renal; 69.9 µM with NCI-H460 lung; 30.2 µM in the assay with COLO 205 colon; greater than 100 µM in the assay on SK-OV-3 ovarian. Moreover, the TGI in the assay on SNB-19 CNS was greater than 100 µM; in the assay with HOP-92 NSCLC it was 83 µM; in the assay with HL-60(TB) leukemia it was greater than 100 µM.

For the compound `N#CC(I)CS(=O)(=O)c1ccccc1` (centres undefined), the GI50 is 5.48 µM with HCT-15 colon; 18.9 µM in the assay with KM12 colon; 16.1 µM in the assay with SN12C renal; 21.6 µM in the assay with NCI-H460 lung; 2.03 µM with COLO 205 colon; 17.5 µM in the assay on NCI/ADR-RES ovarian. Further, the values for the GI50 with SK-OV-3 ovarian, in the assay with SNB-19 CNS and in the assay on HOP-92 NSCLC were greater than 100 µM, greater than 100 µM and 13.2 µM, respectively. Moreover, the TGI with HCT-15 colon was 19.4 µM; in the assay on KM12 colon, 34.4 µM; in the assay with SN12C renal it was 29.9 µM; with NCI-H460 lung it was 42.4 µM; with COLO 205 colon, 3.86 µM; in the assay on NCI/ADR-RES ovarian, 35.1 µM. The TGI was greater than 100 µM with SK-OV-3 ovarian, greater than 100 µM in the assay on SNB-19 CNS and 26.9 µM in the assay with HOP-92 NSCLC.

Regarding `O=[N+]([O-])c1cccnc1N=Nc1c(O)[nH]c2ccccc12`, the TGI was 16.5 µM in the assay with HCT-15 colon; 25.6 µM with KM12 colon; 86.5 µM with SN12C renal; 35.9 µM with NCI-H460 lung; greater than 100 µM in the assay on NCI/ADR-RES ovarian; 69.5 µM in the assay on SK-OV-3 ovarian. The figures for the TGI in the assay with SNB-19 CNS and in the assay on HOP-92 NSCLC were 58.5 µM and greater than 100 µM, respectively.

Take `O=C(CNc1ccc(Cl)cc1Cl)Nn1c(-c2ccccc2)nc2ccccc2c1=O`: the TGI in the assay with HCT-15 colon was 33.5 µM; in the assay on SN12C renal, 30.5 µM; in the assay on NCI-H460 lung, 30.5 µM; with COLO 205 colon, 36.1 µM; in the assay on NCI/ADR-RES ovarian, 52.9 µM; with SK-OV-3 ovarian it was greater than 100 µM. For the same compound, the TGI in the assay with SNB-19 CNS was 33.9 µM; in the assay with HOP-92 NSCLC, 22.7 µM; in the assay with HL-60(TB) leukemia, greater than 100 µM.

As for `Nc1c(S(=O)(=O)c2ccc(Cl)cc2)c2nc3ccccc3nc2n2ccnc12`, the TGI in the assay with HCT-15 colon, in the assay with KM12 colon, in the assay on SN12C renal, in the assay on NCI-H460 lung, with COLO 205 colon and with SK-OV-3 ovarian was greater than 100 µM each time. Further, the TGI with SNB-19 CNS, with HOP-92 NSCLC and in the assay on HL-60(TB) leukemia was greater than 100 µM in each case.
